Assay results as given in PubChem BioAssay AID1259407 (Chemical Carcinogenesis Research Information System (CCRIS), 2018).
Active and inactive are the calls of the source. How the calls were made is not given here.

Tested on: CCRIS mutagenicity, Ames/micronucleus/aberration tests
Assay: CCRIS mutagenicity studies
[1] = Test System: AMES SALMONELLA TYPHIMURIUM, Strain/Indicator: TA100, Metabolic Activation: NONE, Method: STANDARD PLATE
[2] = Test System: AMES SALMONELLA TYPHIMURIUM, Strain/Indicator: TA100, Metabolic Activation: RAT, S-9, AROCLOR, Method: STANDARD PLATE
[3] = Test System: AMES SALMONELLA TYPHIMURIUM, Strain/Indicator: TA98, Metabolic Activation: NONE, Method: STANDARD PLATE
[4] = Test System: AMES SALMONELLA TYPHIMURIUM, Strain/Indicator: TA1535, Metabolic Activation: NONE, Method: STANDARD PLATE
[5] = Test System: AMES SALMONELLA TYPHIMURIUM, Strain/Indicator: TA1537, Metabolic Activation: NONE, Method: STANDARD PLATE
[6] = Test System: AMES SALMONELLA TYPHIMURIUM, Strain/Indicator: TA98, Metabolic Activation: RAT, LIVER, S-9, AROCLOR 1254, Method: STANDARD PLATE
[7] = Test System: AMES SALMONELLA TYPHIMURIUM, Strain/Indicator: TA100, Metabolic Activation: RAT, LIVER, S-9, AROCLOR 1254, Method: STANDARD PLATE
[8] = Test System: AMES SALMONELLA TYPHIMURIUM, Strain/Indicator: TA98, Metabolic Activation: HAMSTER, LIVER, S-9, AROCLOR 1254 (10%), Method: PREINCUBATION
[9] = Test System: AMES SALMONELLA TYPHIMURIUM, Strain/Indicator: TA98, Metabolic Activation: NONE, Method: PREINCUBATION
[10] = Test System: AMES SALMONELLA TYPHIMURIUM, Strain/Indicator: TA98, Metabolic Activation: RAT, LIVER, S-9, AROCLOR 1254 (10%), Method: PREINCUBATION
[11] = Test System: AMES SALMONELLA TYPHIMURIUM, Strain/Indicator: TA100, Metabolic Activation: HAMSTER, LIVER, S-9, AROCLOR 1254 (10%), Method: PREINCUBATION
[12] = Test System: AMES SALMONELLA TYPHIMURIUM, Strain/Indicator: TA100, Metabolic Activation: NONE, Method: PREINCUBATION
[13] = Test System: AMES SALMONELLA TYPHIMURIUM, Strain/Indicator: TA100, Metabolic Activation: RAT, LIVER, S-9, AROCLOR 1254 (10%), Method: PREINCUBATION
[14] = Test System: AMES SALMONELLA TYPHIMURIUM, Strain/Indicator: TA1535, Metabolic Activation: HAMSTER, LIVER, S-9, AROCLOR 1254 (10%), Method: PREINCUBATION
[15] = Test System: AMES SALMONELLA TYPHIMURIUM, Strain/Indicator: TA1535, Metabolic Activation: NONE, Method: PREINCUBATION
[16] = Test System: AMES SALMONELLA TYPHIMURIUM, Strain/Indicator: TA1535, Metabolic Activation: RAT, LIVER, S-9, AROCLOR 1254 (10%), Method: PREINCUBATION
[17] = Test System: AMES SALMONELLA TYPHIMURIUM, Strain/Indicator: TA1537, Metabolic Activation: HAMSTER, LIVER, S-9, AROCLOR 1254 (10%), Method: PREINCUBATION
[18] = Test System: AMES SALMONELLA TYPHIMURIUM, Strain/Indicator: TA1537, Metabolic Activation: NONE, Method: PREINCUBATION
[19] = Test System: AMES SALMONELLA TYPHIMURIUM, Strain/Indicator: TA1537, Metabolic Activation: RAT, LIVER, S-9, AROCLOR 1254 (10%), Method: PREINCUBATION

CN(N=O)C(=O)Nc1ccc(Cl)cc1
mutagenic call (End Point: IN VITRO CHROMOSOMAL ABERRATIONS, Test System: CHINESE HAMSTER V79-E CELLS, Metabolic Activation: NONE): active; weakly positive

O=C1OC(O)C(Cl)=C1Cl (stereo not given)
mutagenic call [1]: active; positive
mutagenic call (Test System: UDS RAT HEPATOCYTES, Strain/Indicator: THYMIDINE INCORPORATION, Metabolic Activation: NONE, Method: AUTORADIOGRAPHY): active; positive

O=C(ON(OCc1ccccc1)C(=O)c1ccccc1)c1ccc([N+](=O)[O-])cc1
mutagenic call [1]: active; positive
mutagenic call [2]: active; positive

C[C@@H]1O[C@H](C)[C@@H](O)[C@H](O)[C@@H]1OS(=O)(=O)O
mutagenic call [3]: inactive; negative
mutagenic call (Test System: AMES SALMONELLA TYPHIMURIUM, Strain/Indicator: TA98, Metabolic Activation: S-9, Method: STANDARD PLATE): inactive; negative
mutagenic call [1]: inactive; negative
mutagenic call (Test System: AMES SALMONELLA TYPHIMURIUM, Strain/Indicator: TA100, Metabolic Activation: S-9, Method: STANDARD PLATE): inactive; negative
mutagenic call [4]: inactive; negative
mutagenic call (Test System: AMES SALMONELLA TYPHIMURIUM, Strain/Indicator: TA1535, Metabolic Activation: S-9, Method: STANDARD PLATE): inactive; negative
mutagenic call [5]: inactive; negative
mutagenic call (Test System: AMES SALMONELLA TYPHIMURIUM, Strain/Indicator: TA1537, Metabolic Activation: S-9, Method: STANDARD PLATE): inactive; negative
mutagenic call (Test System: E. COLI, Strain/Indicator: WP2 UVRA, Metabolic Activation: NONE, Method: STANDARD PLATE): inactive; negative
mutagenic call (Test System: E. COLI, Strain/Indicator: WP2 UVRA, Metabolic Activation: S-9, Method: STANDARD PLATE): inactive; negative

C[C@]12CC[C@@H](OC(=O)/C=C/c3cccc(N(CCCl)CCCl)c3)C[C@@H]1CC[C@@H]1[C@@H]2CC[C@]2(C)NC(=O)CC[C@@H]12
mutagenic call [3]: inactive; negative
mutagenic call [6]: inactive; negative
mutagenic call [1]: inactive; negative
mutagenic call [7]: inactive; negative
mutagenic call [4]: active; positive
mutagenic call (Test System: AMES SALMONELLA TYPHIMURIUM, Strain/Indicator: TA1535, Metabolic Activation: RAT, LIVER, S-9, AROCLOR 1254, Method: STANDARD PLATE): active; positive
mutagenic call [5]: inactive; negative
mutagenic call (Test System: AMES SALMONELLA TYPHIMURIUM, Strain/Indicator: TA1537, Metabolic Activation: RAT, LIVER, S-9, AROCLOR 1254, Method: STANDARD PLATE): inactive; negative

CCC(C)c1ccccc1O (stereo not given)
mutagenic call [8]: inactive; negative
mutagenic call [9]: inactive; negative
mutagenic call (Test System: AMES SALMONELLA TYPHIMURIUM, Strain/Indicator: TA98, Metabolic Activation: RAT LIVER S-9, PHENOBARBITAL AND BETA-NAPHTHOFLAVONE, Method: PREINCUBATION): inactive; negative
mutagenic call [10]: inactive; negative
mutagenic call [11]: inactive; negative
mutagenic call [12]: inactive; negative
mutagenic call (Test System: AMES SALMONELLA TYPHIMURIUM, Strain/Indicator: TA100, Metabolic Activation: RAT LIVER S-9, PHENOBARBITAL AND BETA-NAPHTHOFLAVONE, Method: PREINCUBATION): inactive; negative
mutagenic call [13]: inactive; negative
mutagenic call [14]: inactive; negative
mutagenic call [15]: inactive; negative
mutagenic call (Test System: AMES SALMONELLA TYPHIMURIUM, Strain/Indicator: TA1535, Metabolic Activation: RAT LIVER S-9, PHENOBARBITAL AND BETA-NAPHTHOFLAVONE, Method: PREINCUBATION): inactive; negative
mutagenic call [16]: inactive; negative
mutagenic call [17]: inactive; negative
mutagenic call [18]: inactive; negative
mutagenic call (Test System: AMES SALMONELLA TYPHIMURIUM, Strain/Indicator: TA1537, Metabolic Activation: RAT LIVER S-9, PHENOBARBITAL AND BETA-NAPHTHOFLAVONE, Method: PREINCUBATION): inactive; negative
mutagenic call [19]: inactive; negative
mutagenic call (Test System: E.COLI, Strain/Indicator: WP2UVRA/PKM101, Metabolic Activation: NONE, Method: PREINCUBATION): inactive; negative
mutagenic call (Test System: E.COLI, Strain/Indicator: WP2UVRA/PKM101, Metabolic Activation: RAT LIVER S-9, PHENOBARBITAL AND BETA-NAPHTHOFLAVONE, Method: PREINCUBATION): inactive; negative

CC(=O)Nc1ccc(/C=C/C(=O)c2ccccc2)cc1
mutagenic call [3]: inactive; negative
mutagenic call [6]: active; positive
mutagenic call [1]: active; positive
mutagenic call [7]: active; positive

COc1ccc(C(=O)ON(OCc2ccccc2)C(=O)c2ccccc2)cc1
mutagenic call [1]: active; positive
mutagenic call [2]: active; positive

c1ccc([C@@H]2CO2)cc1
mutagenic call (Test System: AMES SALMONELLA TYPHIMURIUM, Strain/Indicator: TA100, Metabolic Activation: NONE): active; positive
mutagenic call [1]: active; positive

[N-]=[N+]=NC[C@H]1O[C@H](O)[C@H](O)[C@@H](O)[C@@H]1O
mutagenic call [3]: inactive; negative
mutagenic call [1]: active; positive

CC(C)CNCC(C)C
mutagenic call [8]: inactive; negative
mutagenic call [9]: inactive; negative
mutagenic call [10]: inactive; negative
mutagenic call [11]: inactive; negative
mutagenic call [12]: inactive; negative
mutagenic call [13]: inactive; negative
mutagenic call [14]: inactive; negative
mutagenic call [15]: inactive; negative
mutagenic call [16]: inactive; negative
mutagenic call [17]: inactive; negative
mutagenic call [18]: inactive; negative
mutagenic call [19]: inactive; negative

O=C(Nc1cccc(Cl)c1)c1csc([N+](=O)[O-])c1
mutagenic call [3]: active; positive
mutagenic call [1]: active; positive
